# According to patent publication US11613552B2, “Pharmaceutical agents, compositions, and methods relating thereto” (Alltech, Inc., priority 2017, dated 2023):
# How the values were obtained:
# Glut4 = assay: QRT-PCR of Glut4 mRNA in AML-12 cells; format: cell-based, mouse
# Description: For RNA analysis of basal Glut4 (Slc2a4) expression (in the absence of diabetic stimuli 8-CPT/Dex), amplified AML-12 cells were cultured on 24-well (1×10^5 cells/well) plates overnight in 10% FBS ITS- and Dex-free DMEM/F12 media. These cells were washed twice with PBS to remove residual sera and then were incubated with vehicle (0.024% DMSO) or with Compound #43 (300 ppb) in serum-free DMEM/F12 media for 24 hours.
# For RNA analysis of Glut4 expression in AML-12 cells cultured under simulated diabetic conditions, amplified AML-12 cells were cultured on 24-well (2×10^5 cells/well) plates in 10% FBS ITS- and Dex-free DMEM/F12 media overnight. Then these cells were washed twice with PBS to remove any potential residual sera and then were serum-starved in plain DMEM/F12 media overnight. These serum-starved AML-12 cells were then incubated with vehicle (0.024% DMSO) or with Compound #43 (300 ppb) in the presence of diabetic stimuli, 0.1 mM 8-CPT (Sigma) and 0.5 μM Dex, in serum-free plain DMEM/F12 media for 6 and 24 hours.
# Total liver RNA from saline- or Compound #43-treated Lepr^db/db mice was isolated using a Qiagen RNAeasy RNA isolation kit according to the Manufacturer's protocol. Total RNA from cultured cells was isolated using Trizol (Invitrogen) according to the manufacturer's protocol, and then incubated with DNase I to remove any potential contaminating genomic DNA. […]
# Insrβ = molecular target: T1, Insrβ (Mus musculus, UniProt P15208); assay: Western blot of Insrβ phosphorylation in skeletal muscle of Lepr^db/db mice; format: in vivo; conditions: 0.136 mg/kg ip daily
# T1 construct: gastrocnemius skeletal muscle and liver samples were collected and stored at −80° C; from tissue; host or cells: gastrocnemius skeletal muscle (A22) and liver (A24) of Lepr db/db mice
# Description: Male Lepr^db/db mice (C57BL/6J strain, purchased from The Jackson Laboratory) at postnatal day 38 were intraperitoneally injected daily with physiological saline ([…]) containing 0.2% DMSO, or 0.136 mg of Compound #43 per kilogram body weight, diluted in the sterile physiological saline) for 52 days. After the treatment, gastrocnemius skeletal muscle and liver samples were collected and stored at −80° C.
# Frozen skeletal muscle and liver tissues were minced in sterile ice-old PBS containing complete proteinase and phosphatase inhibitors (Thermo-Fisher Scientific, Waltham, Mass.) and subjected to homogenization using a tissue homogenizer (Thermo-Fisher Scientific, Waltham, Mass.). These tissue homogenates were diluted in Themo-Fisher's premade RIPA buffer (1 part homogenate/2 part of RIPA buffer) containing complete proteinase/phosphatase inhibitors to extract the proteins. Proteins in the homogenates were extracted in RIPA buffer at 4° C. overnight. These overnight-extracted protein/tissue lysates were centrifuged at 12000×g for 30 min at 4° C., and the protein levels in the supernatant of these tissue lysates were determined using the Pierce Micro-BCA protein assay kit (Thermo Scientific-Piece Biotechnology, Rockford, Ill.) according to the manufacturer's protocol. […]
# G6pc = assay: QRT-PCR of G6pc mRNA in livers of Lepr^db/db mice; format: in vivo, mouse; conditions: 25 μg selenium/kg ip daily, 52 days (FIG. 9)
# Description: Male Lepr^db/db mice (C57BL/6J strain, purchased from The Jackson Laboratory) at 38-days of age were intraperitoneally injected daily with physiological saline ([…]) containing 0.2% DMSO, Compound #50, or Compound #43 (25 μg selenium equivalent of each compound per kilogram body weight, diluted in the sterile physiological saline) for 52 days. After the treatment, livers were collected and subjected RNA analysis.
# Total RNA from saline- or selenium compound-treated Lepr^db/db mice was isolated using a Qiagen RNAeasy RNA isolation kit according to the Manufacturer's protocol. Total RNA from cultured cells was isolated using Trizol (Invitrogen) according to the manufacturer's protocol, and then incubated with DNase I to remove any potential contaminating genomic DNA. RNA samples were subjected to real-time PCR (QRT-PCR) analysis using Applied-Bioscience's RT kit and predesigned Taqman probes (Invitrogen), as described previously (Lan et al EMBO J 2003). Data were normalized by Actin B (Actb) mRNA levels in each sample, and are presented as mean±SEM of 3-5 samples.
# T1 sequence (P15208 753-1372 limits assumed): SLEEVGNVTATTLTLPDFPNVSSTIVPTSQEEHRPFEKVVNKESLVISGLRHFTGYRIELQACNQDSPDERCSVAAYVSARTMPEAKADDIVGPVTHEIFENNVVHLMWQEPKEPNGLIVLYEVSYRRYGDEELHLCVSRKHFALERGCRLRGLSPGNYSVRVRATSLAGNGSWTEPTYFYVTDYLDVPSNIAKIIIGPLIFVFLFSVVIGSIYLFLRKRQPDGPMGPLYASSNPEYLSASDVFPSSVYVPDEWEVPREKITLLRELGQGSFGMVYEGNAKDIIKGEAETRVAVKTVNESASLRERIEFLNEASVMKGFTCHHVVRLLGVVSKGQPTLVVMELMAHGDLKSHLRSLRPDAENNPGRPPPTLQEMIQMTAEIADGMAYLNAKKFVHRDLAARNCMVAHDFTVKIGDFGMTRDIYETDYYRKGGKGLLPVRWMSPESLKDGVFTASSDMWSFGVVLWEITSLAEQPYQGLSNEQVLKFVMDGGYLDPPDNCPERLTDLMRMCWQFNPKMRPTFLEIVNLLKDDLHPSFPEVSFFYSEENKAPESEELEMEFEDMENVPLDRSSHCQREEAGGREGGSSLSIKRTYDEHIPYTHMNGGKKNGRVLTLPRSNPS
# T1 sequence (P15208 28-748 partner limits assumed): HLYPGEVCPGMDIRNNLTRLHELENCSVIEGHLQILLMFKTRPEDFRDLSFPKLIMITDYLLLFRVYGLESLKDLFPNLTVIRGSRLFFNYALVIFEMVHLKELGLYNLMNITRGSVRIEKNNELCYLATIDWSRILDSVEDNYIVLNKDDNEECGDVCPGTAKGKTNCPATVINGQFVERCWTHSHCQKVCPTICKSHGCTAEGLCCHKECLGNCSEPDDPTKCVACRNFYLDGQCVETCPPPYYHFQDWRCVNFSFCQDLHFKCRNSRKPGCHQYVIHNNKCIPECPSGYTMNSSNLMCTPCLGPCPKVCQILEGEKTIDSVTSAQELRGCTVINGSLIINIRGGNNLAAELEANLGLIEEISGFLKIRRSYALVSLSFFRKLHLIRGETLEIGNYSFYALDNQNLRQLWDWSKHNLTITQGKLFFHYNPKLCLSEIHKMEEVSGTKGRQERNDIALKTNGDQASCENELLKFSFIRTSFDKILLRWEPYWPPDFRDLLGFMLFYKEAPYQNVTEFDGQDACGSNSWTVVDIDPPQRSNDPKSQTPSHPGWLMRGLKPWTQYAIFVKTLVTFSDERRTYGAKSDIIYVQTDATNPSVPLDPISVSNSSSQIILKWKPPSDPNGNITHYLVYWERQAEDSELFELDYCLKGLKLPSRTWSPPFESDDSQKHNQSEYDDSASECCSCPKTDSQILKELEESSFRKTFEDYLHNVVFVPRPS
compound,measurement,setting,value
"C[Se]C[C@H]1O[C@@H](n2cnc3c(N)ncnc32)C(OC(C)=O)C1OC(C)=O (some centres unmarked) [Compound #43, Adenosine, 5′-Se-methyl-5′-selino-, 2′,3′-diacetate]",effect on Glut4 mRNA expression,"Glut4; 300 ppb with 8-CPT/Dex, 6 and 24 hours (FIG. 16B)",significant increase in Glut4 mRNA expression
same,increase of basal Glut4 mRNA expression,"Glut4; 300 ppb, serum-free, 24 hours (FIG. 16A)",about 2.1 fold
same,increase of phosphorylated Insrβ (Tyrosine 1146) in skeletal muscle,Insrβ; 52 days (FIG. 20B),~2.5 fold
same,total Insrβ protein levels in skeletal muscle,Insrβ; 52 days (FIG. 20C),no significant change of total Insrβ protein levels
same,reduction of G6pc mRNA levels in the liver vs saline,G6pc,about 56%
